The values below come from ChEMBL document CHEMBL5131517 (ACS Med Chem Lett, 2022).

Test [1] deals with T1, Alpha-2C adrenergic receptor (Homo sapiens) (UniProt P18825).
T1 sequence (whole entry): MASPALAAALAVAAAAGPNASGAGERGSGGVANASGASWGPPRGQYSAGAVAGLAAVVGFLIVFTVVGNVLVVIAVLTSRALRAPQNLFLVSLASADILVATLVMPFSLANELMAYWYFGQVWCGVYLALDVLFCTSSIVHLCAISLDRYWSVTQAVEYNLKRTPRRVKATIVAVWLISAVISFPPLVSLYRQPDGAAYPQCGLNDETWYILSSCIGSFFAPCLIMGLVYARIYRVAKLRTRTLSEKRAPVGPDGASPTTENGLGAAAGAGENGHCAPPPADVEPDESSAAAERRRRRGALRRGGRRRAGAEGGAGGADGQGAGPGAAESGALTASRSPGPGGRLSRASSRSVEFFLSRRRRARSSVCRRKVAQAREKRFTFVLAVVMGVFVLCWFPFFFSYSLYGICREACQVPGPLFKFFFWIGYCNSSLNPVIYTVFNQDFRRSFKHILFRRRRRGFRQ
In words: Inhibition of alpha2c (unknown origin). Particulars: concentration not given here.

A further test has as its target D(3) dopamine receptor (Homo sapiens, UniProt P35462). The test is described as follows: Inhibition of D3 receptor (unknown origin). Particulars: concentration not given here.
For a further test, the species on record is Homo sapiens. In words: Inhibition of BZP receptor (unknown origin). Particulars: concentration not given here.
Test [2] addresses Beta-2 adrenergic receptor (Homo sapiens) (UniProt P07550). In words: Inhibition of beta 2 receptor (unknown origin). Particulars: concentration not given here.
In test [3] the target is T2, Muscarinic acetylcholine receptor M1 (Homo sapiens) (UniProt P11229).
T2 sequence (whole entry): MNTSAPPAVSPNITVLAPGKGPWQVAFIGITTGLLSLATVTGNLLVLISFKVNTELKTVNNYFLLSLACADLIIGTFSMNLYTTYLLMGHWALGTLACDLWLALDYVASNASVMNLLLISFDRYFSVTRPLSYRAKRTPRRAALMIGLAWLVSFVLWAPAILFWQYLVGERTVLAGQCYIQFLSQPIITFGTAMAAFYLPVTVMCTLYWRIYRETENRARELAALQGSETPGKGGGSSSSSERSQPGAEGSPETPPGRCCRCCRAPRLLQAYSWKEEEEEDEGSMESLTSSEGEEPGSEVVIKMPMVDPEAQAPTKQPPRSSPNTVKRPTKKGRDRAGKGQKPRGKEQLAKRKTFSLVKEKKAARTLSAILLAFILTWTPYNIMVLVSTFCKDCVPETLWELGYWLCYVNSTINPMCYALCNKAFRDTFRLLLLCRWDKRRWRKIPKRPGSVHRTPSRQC
The test is described as follows: Inhibition of M1 receptor (unknown origin). To be noted: concentration not given here.

In test [4] the target is T3, 5-hydroxytryptamine receptor 2A (Homo sapiens, UniProt P28223). The test is described as follows: Binding affinity to 5HT2A receptor (unknown origin) assessed as inhibition constant.
In test [5] the target is Beta-3 adrenergic receptor (Homo sapiens) (UniProt P13945). In words: Inhibition of beta 3 receptor (unknown origin). Particulars: concentration not given here.
The target in test [6] is Histamine H3 receptor (Homo sapiens) (UniProt Q9Y5N1). In words: Inhibition of H3 receptor (unknown origin). Particulars: concentration not given here.
Test [7] concerns the target 5-hydroxytryptamine receptor 2B (Homo sapiens, UniProt P41595). The test is described as follows: Agonist activity at human 5HT2B receptor stably expressed in Flp-In-T-REx-293 cells assessed as increase in Gq-mediated calcium flux by Fluo-4 direct dye based FLIPR Tetra assay. The format is functional, cell-based.
Test [8] addresses T4, Alpha-2A adrenergic receptor (Homo sapiens) (UniProt P08913).
T4 sequence (whole entry): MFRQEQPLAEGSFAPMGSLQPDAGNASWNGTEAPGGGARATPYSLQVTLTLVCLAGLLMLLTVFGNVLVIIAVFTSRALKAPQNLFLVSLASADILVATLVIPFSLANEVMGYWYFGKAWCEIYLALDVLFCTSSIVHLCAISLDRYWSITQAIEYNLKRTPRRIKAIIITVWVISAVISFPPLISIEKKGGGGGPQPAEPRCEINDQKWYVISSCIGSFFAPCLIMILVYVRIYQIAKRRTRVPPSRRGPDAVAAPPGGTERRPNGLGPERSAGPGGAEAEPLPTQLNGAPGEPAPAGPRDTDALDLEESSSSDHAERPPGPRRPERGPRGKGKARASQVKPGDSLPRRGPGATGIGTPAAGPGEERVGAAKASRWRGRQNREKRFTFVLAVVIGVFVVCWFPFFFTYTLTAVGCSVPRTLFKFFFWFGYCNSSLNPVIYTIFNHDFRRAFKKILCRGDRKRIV
In words: Inhibition of alpha2A receptor (unknown origin). To be noted: concentration not given here.

In test [9] the target is Sigma intracellular receptor 2 (Homo sapiens, UniProt Q5BJF2). The test is described as follows: Inhibition of sigma 2 receptor (unknown origin). Particulars: concentration not given here.
The target in test [10] is T5, Muscarinic acetylcholine receptor M4 (Homo sapiens) (UniProt P08173).
T5 sequence (whole entry): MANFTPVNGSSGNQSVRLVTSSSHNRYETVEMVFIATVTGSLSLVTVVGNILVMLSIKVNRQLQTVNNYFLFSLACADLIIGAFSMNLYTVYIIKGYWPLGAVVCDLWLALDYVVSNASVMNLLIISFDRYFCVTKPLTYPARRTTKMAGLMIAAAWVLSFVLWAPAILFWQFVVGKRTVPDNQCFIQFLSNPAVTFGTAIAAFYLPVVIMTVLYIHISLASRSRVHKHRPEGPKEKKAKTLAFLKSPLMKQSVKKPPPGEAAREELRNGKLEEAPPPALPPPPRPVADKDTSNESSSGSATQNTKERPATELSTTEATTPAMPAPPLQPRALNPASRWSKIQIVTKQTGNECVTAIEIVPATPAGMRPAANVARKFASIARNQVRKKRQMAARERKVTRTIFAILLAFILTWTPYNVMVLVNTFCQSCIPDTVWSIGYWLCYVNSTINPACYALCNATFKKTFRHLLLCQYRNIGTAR
The test is described as follows: Inhibition of M4 receptor (unknown origin). To be noted: concentration not given here.

Test [11] deals with T3, 5-hydroxytryptamine receptor 2A. In words: Agonist activity at human 5HT2A receptor stably expressed in Flp-In-T-REx-293 cells assessed as increase in Gq-mediated calcium flux by Fluo-4 direct dye based FLIPR Tetra assay. The format is functional, cell-based.
In test [12] the target is GABA-A receptor; anion channel (Homo sapiens) (UniProt P14867+P47870+P18507+P28472+P48169+Q99928+Q9UN88+P34903+O00591+O14764+Q8N1C3+P18505+P78334+P47869+P31644+Q16445). The test is described as follows: Inhibition of GABA-A receptor (unknown origin). The format is protein-complex assay. To be noted: concentration not given here.
Test [13] concerns the target Histamine H4 receptor (Homo sapiens) (UniProt Q9H3N8). In words: Inhibition of H4 receptor (unknown origin). To be noted: concentration not given here.
Test [14] addresses Muscarinic acetylcholine receptor M3 (Homo sapiens) (UniProt P20309). The test is described as follows: Inhibition of M3 receptor (unknown origin). Particulars: concentration not given here.
Test [15] deals with D(1B) dopamine receptor (Homo sapiens) (UniProt P21918). In words: Inhibition of D5 receptor (unknown origin). Particulars: concentration not given here.
Sequence of D(1B) dopamine receptor (Homo sapiens) (P21918 whole entry): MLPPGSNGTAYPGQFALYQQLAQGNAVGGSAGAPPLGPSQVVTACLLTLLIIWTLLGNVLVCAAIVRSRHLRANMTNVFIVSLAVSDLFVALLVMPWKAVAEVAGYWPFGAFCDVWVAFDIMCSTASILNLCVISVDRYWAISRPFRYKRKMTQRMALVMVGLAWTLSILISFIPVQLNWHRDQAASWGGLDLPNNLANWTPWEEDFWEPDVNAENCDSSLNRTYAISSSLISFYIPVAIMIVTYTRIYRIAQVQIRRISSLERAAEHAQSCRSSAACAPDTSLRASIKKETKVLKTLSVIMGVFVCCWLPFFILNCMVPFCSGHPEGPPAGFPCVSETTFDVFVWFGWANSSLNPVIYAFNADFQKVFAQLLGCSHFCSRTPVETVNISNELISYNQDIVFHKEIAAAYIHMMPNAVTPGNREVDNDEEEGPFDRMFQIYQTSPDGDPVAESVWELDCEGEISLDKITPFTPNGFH

Sequence of Histamine H4 receptor (Homo sapiens) (Q9H3N8 whole entry): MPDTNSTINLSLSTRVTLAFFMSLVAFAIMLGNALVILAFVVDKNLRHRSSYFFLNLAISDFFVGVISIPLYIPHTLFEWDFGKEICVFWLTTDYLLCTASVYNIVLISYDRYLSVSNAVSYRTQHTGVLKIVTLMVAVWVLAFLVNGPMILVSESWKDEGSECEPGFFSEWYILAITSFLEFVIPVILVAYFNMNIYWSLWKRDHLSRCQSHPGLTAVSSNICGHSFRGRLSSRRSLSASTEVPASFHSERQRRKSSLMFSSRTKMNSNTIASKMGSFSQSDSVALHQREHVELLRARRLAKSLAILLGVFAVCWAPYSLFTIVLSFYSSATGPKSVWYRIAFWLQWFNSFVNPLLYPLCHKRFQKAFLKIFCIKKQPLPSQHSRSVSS
Sequence of Beta-2 adrenergic receptor (Homo sapiens) (P07550 whole entry, looked up): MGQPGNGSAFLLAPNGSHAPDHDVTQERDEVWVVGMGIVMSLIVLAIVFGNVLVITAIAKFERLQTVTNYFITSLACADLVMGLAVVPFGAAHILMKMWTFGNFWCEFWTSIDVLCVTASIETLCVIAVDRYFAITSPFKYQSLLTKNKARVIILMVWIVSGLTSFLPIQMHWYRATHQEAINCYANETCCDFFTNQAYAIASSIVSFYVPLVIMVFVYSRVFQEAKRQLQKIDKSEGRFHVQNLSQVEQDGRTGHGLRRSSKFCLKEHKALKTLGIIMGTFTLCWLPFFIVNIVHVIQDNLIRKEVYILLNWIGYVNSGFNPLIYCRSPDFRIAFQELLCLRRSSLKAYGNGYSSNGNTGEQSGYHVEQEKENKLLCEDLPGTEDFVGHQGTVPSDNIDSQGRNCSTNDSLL
Sequence of Histamine H3 receptor (Homo sapiens) (Q9Y5N1 whole entry): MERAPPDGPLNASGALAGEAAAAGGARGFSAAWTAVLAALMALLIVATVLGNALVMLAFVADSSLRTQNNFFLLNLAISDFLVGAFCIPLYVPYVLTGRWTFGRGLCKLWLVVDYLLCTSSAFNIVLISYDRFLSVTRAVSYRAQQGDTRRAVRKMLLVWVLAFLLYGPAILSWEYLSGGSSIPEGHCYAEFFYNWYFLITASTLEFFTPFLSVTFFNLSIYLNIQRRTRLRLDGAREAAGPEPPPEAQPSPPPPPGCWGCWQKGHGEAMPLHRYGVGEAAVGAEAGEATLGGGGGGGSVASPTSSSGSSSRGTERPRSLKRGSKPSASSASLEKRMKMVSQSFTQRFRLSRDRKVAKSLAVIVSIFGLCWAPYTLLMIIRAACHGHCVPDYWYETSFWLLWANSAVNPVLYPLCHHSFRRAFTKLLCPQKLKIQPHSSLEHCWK
Sequence of Sigma intracellular receptor 2 (Q5BJF2 whole entry): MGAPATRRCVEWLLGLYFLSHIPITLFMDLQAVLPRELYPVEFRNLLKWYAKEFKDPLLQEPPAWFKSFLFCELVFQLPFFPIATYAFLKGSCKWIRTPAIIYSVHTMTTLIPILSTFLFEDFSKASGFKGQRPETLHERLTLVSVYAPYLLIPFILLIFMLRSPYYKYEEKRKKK
Sequence of 5-hydroxytryptamine receptor 2B (P41595 whole entry): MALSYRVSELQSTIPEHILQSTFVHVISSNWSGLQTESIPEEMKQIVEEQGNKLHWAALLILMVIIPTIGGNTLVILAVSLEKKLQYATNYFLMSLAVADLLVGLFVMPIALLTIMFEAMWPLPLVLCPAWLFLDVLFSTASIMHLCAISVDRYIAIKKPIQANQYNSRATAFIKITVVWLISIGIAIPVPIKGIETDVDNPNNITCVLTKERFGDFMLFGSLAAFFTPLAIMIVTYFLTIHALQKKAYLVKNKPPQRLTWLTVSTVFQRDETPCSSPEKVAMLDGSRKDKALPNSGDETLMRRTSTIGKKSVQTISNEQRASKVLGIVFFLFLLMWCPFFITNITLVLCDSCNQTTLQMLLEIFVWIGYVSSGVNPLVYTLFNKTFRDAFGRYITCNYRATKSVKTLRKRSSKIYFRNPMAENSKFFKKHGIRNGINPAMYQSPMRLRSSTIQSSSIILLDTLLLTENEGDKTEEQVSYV
Sequence of Muscarinic acetylcholine receptor M3 (Homo sapiens) (P20309 whole entry, looked up): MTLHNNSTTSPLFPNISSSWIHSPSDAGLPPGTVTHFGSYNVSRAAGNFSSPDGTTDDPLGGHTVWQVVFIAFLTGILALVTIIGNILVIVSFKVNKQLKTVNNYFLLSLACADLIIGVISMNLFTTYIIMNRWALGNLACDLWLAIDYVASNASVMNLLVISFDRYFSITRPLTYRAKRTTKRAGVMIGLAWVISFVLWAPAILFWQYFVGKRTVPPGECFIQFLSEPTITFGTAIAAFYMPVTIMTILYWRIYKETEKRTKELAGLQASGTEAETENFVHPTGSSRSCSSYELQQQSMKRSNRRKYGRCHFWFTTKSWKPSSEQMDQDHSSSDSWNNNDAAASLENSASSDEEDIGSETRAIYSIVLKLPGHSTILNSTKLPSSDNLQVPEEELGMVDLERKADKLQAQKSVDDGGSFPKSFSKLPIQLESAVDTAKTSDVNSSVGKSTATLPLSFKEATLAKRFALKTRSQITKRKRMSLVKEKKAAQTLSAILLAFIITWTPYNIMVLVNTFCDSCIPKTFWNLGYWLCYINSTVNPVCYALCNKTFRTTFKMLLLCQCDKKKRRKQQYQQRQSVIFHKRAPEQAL
Sequence of D(3) dopamine receptor (P35462 whole entry): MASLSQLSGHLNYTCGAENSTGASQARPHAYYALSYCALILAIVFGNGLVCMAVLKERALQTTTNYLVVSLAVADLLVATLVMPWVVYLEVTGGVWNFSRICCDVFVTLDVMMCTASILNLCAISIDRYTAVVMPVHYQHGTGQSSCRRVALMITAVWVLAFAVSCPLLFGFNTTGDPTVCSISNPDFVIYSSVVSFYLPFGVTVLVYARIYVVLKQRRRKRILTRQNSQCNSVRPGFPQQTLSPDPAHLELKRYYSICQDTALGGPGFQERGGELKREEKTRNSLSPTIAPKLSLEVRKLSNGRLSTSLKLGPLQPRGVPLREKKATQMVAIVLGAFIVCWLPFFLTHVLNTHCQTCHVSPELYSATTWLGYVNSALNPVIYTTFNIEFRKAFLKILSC
T3 sequence (P28223 whole entry): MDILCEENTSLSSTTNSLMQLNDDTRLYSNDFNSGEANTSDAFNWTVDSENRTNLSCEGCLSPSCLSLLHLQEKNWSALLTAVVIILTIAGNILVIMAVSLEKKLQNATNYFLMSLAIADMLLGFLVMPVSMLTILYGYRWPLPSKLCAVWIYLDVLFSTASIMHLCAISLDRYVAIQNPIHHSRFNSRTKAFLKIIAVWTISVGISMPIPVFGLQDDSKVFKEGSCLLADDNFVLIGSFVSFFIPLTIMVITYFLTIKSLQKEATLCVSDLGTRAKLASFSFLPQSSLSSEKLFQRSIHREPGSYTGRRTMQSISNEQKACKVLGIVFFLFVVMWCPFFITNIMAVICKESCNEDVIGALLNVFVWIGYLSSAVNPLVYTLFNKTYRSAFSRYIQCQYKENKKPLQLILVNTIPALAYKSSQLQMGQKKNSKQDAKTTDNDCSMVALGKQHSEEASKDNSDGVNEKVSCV
Sequence of Beta-3 adrenergic receptor (Homo sapiens) (P13945 whole entry, looked up): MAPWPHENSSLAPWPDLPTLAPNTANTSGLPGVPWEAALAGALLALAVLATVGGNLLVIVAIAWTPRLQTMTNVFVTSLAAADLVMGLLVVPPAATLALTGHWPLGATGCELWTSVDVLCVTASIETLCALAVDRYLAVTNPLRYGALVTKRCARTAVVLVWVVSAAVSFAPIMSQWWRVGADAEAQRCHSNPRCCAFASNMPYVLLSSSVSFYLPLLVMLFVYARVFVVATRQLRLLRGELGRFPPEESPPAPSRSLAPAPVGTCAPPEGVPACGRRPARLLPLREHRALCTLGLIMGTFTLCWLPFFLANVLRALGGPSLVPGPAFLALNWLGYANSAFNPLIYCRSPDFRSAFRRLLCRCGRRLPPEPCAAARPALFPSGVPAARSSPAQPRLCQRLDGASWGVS

For the compound `COc1ccc(C2NCCc3c2[nH]c2ccc(F)cc32)c(O)c1` (stereo unspecified), the inhibition (in test [1]; at D(3) dopamine receptor; in the test listed under Homo sapiens; in [2]; in test [3]; in test [5]) was < 50% each time. The inhibition in test [6], in [8], in [9], in test [10], in [12] and in test [13] was < 50% each time. Moreover, the inhibition in [14] and in test [15] was < 50% throughout. Further, in test [4], the Ki is 250 nM. Moreover, the EC50 in test [7] (read-out: EC50) was found to be 1.3 nM; in test [11], 3.2 nM.
As to `COc1cc(OC)c(C2NCCc3c2[nH]c2ccc(Cl)cc32)cc1OC` (stereo unspecified), the inhibition (in test [1]; against D(3) dopamine receptor; in the test listed under Homo sapiens; in test [2]; in [3]; in test [5]) was < 50% in each case. The inhibition in test [6], in [8], in [9], in [10], in test [12] and in [13] was < 50% in each case. Besides, the inhibition in [14] and in test [15] was < 50% in each case. In [4], the Ki turned out to be 113 nM. The EC50 in test [7] (read-out: EC50) worked out at 0.58 nM; in test [11] it was 1.7 nM.
For the compound `COc1cc(OC)c(C2NCCc3c2[nH]c2ccc(F)cc32)cc1OC` (stereo unspecified), the inhibition (against D(3) dopamine receptor; in the test filed under Homo sapiens; in [2]; in test [3]; in test [5]; in test [6]) was < 50% in each case. Further, the inhibition in test [8], in test [10], in test [12], in test [13], in test [14] and in test [15] was < 50% throughout. Further, the Ki in [4] was 2440 nM. For the same compound, the EC50 is 10 nM in test [7] (read-out: EC50), 11 nM in test [7] (read-out: pEC50 (converted)) and 39 nM in test [11].
`COc1ccc(C2NCCc3c2[nH]c2ccc(Cl)cc32)c(O)c1` (stereo unspecified): the inhibition (in test [1]; in the test filed under Homo sapiens; in test [2]; in [3]; in [5]; in test [6]) was < 50% each time. Moreover, the inhibition in test [8], in test [9], in test [10], in [12], in [13] and in test [14] was < 50% throughout. The inhibition in [15] was < 50%. In addition, in test [4], the Ki turned out to be 225 nM. Moreover, the EC50 in [7] (read-out: EC50) worked out at 3.1 nM; in [11], 8.3 nM.
